These results are taken from US7704991B2, “Substituted diazabicyclo derivatives and their use as monoamine neurotransmitter re-uptake inhibitors” (Neurosearch A/S, priority 2005, dated 2010).

Where a name gives a salt, the structure may show the parent alone. Read-outs that look alike come from different tables or passages of the source.

The target of data set [1] is T1, dopamine (DA) reuptake in synaptosomes (Rattus norvegicus, UniProt P23977).
T1 construct: in synaptosomes as described in WO 97/16451; from tissue
Put plainly: In vitro inhibition of dopamine (DA) reuptake in synaptosomes. The format is biochemical.

Data set [2] addresses T2, noradrenaline (NA) reuptake in synaptosomes (Rattus norvegicus, UniProt Q63380).
T2 construct: in synaptosomes as described in WO 97/16451; from tissue
Put plainly: In vitro inhibition of noradrenaline (NA) reuptake in synaptosomes. It counts as biochemical.

Data set [3] deals with T3, serotonine (5-HT) reuptake in synaptosomes (Rattus norvegicus, UniProt P31652).
T3 construct: in synaptosomes as described in WO 97/16451; from tissue
The experiment in a line: In vitro inhibition of serotonine (5-HT) reuptake in synaptosomes. The format is biochemical. On the procedure:
A number of compounds were tested for their ability to inhibit the reuptake of the monoamine neurotransmitters dopamine (DA) noradrenaline (NA) and serotonine (5-HT) in synaptosomes as described in WO 97/16451.
The test values are given as IC50 (the concentration (μM) of the test substance which inhibits the specific binding of ^3H-DA, ^3H-NA, or ^3H-5-HT by 50%).

The mark [4] stands for this setting: synaptosomes, 3H-DA, read-out: DA-uptake IC50.
[5] abbreviates: synaptosomes, 3H-NA, read-out: NA-uptake IC50.

T2 sequence (Q63380 1-617): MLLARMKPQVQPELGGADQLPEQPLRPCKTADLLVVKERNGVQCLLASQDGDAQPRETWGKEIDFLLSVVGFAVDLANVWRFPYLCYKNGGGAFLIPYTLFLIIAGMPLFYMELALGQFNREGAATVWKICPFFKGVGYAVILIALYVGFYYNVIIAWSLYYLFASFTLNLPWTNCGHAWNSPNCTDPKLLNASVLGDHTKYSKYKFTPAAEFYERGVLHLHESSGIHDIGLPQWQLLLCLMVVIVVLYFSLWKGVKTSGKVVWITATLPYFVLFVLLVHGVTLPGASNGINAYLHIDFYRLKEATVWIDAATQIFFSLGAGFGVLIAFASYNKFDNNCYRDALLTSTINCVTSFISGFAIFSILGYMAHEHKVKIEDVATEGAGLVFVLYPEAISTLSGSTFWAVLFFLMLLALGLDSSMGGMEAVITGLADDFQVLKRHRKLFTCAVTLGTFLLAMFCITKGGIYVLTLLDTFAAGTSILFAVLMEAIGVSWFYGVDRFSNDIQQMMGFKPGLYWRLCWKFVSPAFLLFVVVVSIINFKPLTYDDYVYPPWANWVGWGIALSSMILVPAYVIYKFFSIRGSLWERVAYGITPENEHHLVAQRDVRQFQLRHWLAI
T1 sequence (P23977 whole entry): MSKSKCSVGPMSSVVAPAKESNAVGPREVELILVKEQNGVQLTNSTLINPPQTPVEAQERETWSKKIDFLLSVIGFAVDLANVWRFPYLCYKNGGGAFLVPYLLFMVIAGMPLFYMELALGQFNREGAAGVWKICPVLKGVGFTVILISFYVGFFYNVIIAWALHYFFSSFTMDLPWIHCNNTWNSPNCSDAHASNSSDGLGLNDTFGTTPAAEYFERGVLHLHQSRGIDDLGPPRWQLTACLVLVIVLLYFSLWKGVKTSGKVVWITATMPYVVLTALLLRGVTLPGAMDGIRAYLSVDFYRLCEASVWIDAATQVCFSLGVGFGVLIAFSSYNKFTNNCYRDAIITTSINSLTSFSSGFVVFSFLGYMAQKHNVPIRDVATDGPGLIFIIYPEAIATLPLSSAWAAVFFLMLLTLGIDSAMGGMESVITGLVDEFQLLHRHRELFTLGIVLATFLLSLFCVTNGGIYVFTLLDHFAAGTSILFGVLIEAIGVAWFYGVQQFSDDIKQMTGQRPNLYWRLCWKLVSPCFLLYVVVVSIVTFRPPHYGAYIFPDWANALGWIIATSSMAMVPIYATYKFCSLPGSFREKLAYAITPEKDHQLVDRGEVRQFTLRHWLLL
T3 sequence (P31652 whole entry): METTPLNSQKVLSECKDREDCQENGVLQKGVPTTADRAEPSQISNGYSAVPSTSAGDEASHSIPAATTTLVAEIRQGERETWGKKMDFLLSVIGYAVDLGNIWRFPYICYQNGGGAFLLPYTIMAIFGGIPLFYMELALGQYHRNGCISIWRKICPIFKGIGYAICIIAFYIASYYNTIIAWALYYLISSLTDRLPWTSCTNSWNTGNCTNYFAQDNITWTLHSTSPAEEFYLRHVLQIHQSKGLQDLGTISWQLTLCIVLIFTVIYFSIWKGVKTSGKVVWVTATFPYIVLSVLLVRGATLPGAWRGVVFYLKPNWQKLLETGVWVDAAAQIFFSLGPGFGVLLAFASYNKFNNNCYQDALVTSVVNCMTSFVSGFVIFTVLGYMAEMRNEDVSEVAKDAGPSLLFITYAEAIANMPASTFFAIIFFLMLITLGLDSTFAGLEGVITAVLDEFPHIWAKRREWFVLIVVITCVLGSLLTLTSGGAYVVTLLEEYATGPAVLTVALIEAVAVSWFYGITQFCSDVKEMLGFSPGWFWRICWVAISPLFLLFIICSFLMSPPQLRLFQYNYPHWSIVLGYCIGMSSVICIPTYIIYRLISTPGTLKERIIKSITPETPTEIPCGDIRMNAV

For `COc1ccc2cc(N3CC4CCC(C3)N4C)ccc2c1` (as salt: fumaric acid salt) [1st compound of method B, 3-(6-Methoxy-naphthalen-2-yl)-8-methyl-3,8-diaza-bicyclo[3.2.1]octane], the melting point was in the range of 204 to 206 °C.
On the same count and under the same terms, to `CN1C2CCC1CN(c1ccc3ccccc3n1)C2` (as salt: fumaric acid salt) [2nd compound of method A, 2-(8-Methyl-3,8-diaza-bicyclo[3.2.1]oct-3-yl)-quinoline] belongs 210 to 212 °C.
In turn, `CN1C2CCC1CN(c1ccc3cc([N+](=O)[O-])ccc3n1)C2` [1st compound of method A, 2-(8-Methyl-3,8-diaza-bicyclo[3.2.1]oct-3-yl)-6-nitro-quinoline] showed a melting point of 152.1 to 154.5 °C. Further, the IC50 in data set [1] (setting [4]) was found to be 16000 nM. In data set [2] (setting [5]), the IC50 came out at 4600 nM. The molecule further gave an IC50 in data set [3] of 3.1 nM.
As to `COc1ccc2cc(N3CC4CCC(C3)N4C)ccc2c1` [1st compound of method B, 3-(6-Methoxy-naphthalen-2-yl)-8-methyl-3,8-diaza-bicyclo[3.2.1]octane], the IC50 is 56 nM in data set [1]; 20 nM in data set [2]; 20 nM in data set [3] (synaptosomes, 3H-5-HT, read-out: 5-HT-uptake IC50).
As to `CN1C2CCC1CN(c1ccc3ccccc3n1)C2` [2nd compound of method A, 2-(8-Methyl-3,8-diaza-bicyclo[3.2.1]oct-3-yl)-quinoline], the IC50 is 1600 nM in data set [1] (setting [4]), 450 nM in data set [2] (setting [5]) and 16 nM in data set [3].

One may read the melting point as the temperature of the solid-liquid transition. A word on the IC50: it is the concentration needed to halve the response being measured.
